Measurements from patent publication US10167262B2, “Herbicidal substituted 3-arylpyrazoles” (FMC CORPORATION, priority 2014, dated 2019).
Like-named read-outs stand apart in the source and are kept apart here.

How the values were obtained:
Test in all cases: Test C pre-/postemergence greenhouse test, plant response rating 0-100
Type in all cases: in vivo
[1] = tested on: lambsquarters (Chenopodium album); details: Chenopodium album; for pest or weed control at 62 g/ha: 62 g ai/ha; for pest or weed control at 125 g/ha: 125 g ai/ha; for pest or weed control at 250 g/ha: 250 g ai/ha; for pest or weed control at 500 g/ha: 500 g ai/ha
Procedure, shortened: (§1)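 Two application timings: preemergence onto seeded loam/sand soil and postemergence onto plants at the 1–4 leaf stage (2–18 cm) in peat/vermiculite medium. Formulation: non-phytotoxic solvent with surfactant. Read-out: visual control rating, 0–100, at 13–15 days after treatment.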

[2] = tested on: corn (Zea mays); details: Zea mays; for Corn plant response rating (crop injury, 0 = no effect, 100 = complete kill) at 250 g/ha: 250 g ai/ha; for Corn plant response rating (crop injury, 0 = no effect, 100 = complete kill) at 500 g/ha: 500 g ai/ha
Procedure, shortened: as §1

[3] = tested on: yellow nutsedge (Cyperus esculentus); details: Cyperus; for pest or weed control at 62 g/ha: 62 g ai/ha; for pest or weed control at 125 g/ha: 125 g ai/ha; for pest or weed control at 250 g/ha: 250 g ai/ha; for pest or weed control at 500 g/ha: 500 g ai/ha
Procedure, shortened: as §1

[4] = tested on: giant foxtail (Setaria faberii); details: Setaria faberi; for pest or weed control at 62 g/ha: 62 g ai/ha; for pest or weed control at 125 g/ha: 125 g ai/ha; for pest or weed control at 250 g/ha: 250 g ai/ha; for pest or weed control at 500 g/ha: 500 g ai/ha
Procedure, shortened: as §1

[5] = tested on: ragweed (common ragweed, Ambrosia elatior); details: Ambrosia artemisiifolia; for pest or weed control at 62 g/ha: 62 g ai/ha; for pest or weed control at 125 g/ha: 125 g ai/ha; for pest or weed control at 250 g/ha: 250 g ai/ha; for pest or weed control at 500 g/ha: 500 g ai/ha
Procedure, shortened: as §1

[6] = tested on: Italian ryegrass (Lolium multiflorum); details: Lolium multiflorum; for pest or weed control at 62 g/ha: 62 g ai/ha; for pest or weed control at 125 g/ha: 125 g ai/ha; for pest or weed control at 250 g/ha: 250 g ai/ha; for pest or weed control at 500 g/ha: 500 g ai/ha
Procedure, shortened: as §1

[7] = tested on: blackgrass (Alopecurus myosuroides); details: Alopecurus myosuroides, post-emergence, Postemergence
Procedure, shortened: as §1

[8] = post-emergence, Postemergence, read-out: Plant response rating (0 to 100), Lambsquarters
[9] = post-emergence, Postemergence, scale 0 to 100
[10] = pre-emergence, Preemergence, read-out: Plant response rating, Lambsquarters
[11] = post-emergence, Postemergence, read-out: Plant response rating (0 to 100), Nutsedge, Yellow
[12] = pre-emergence, Preemergence, read-out: Plant response rating, Nutsedge, Yellow
[13] = post-emergence, Postemergence, read-out: Plant response rating (0 to 100), Foxtail, Giant
[14] = pre-emergence, Preemergence, read-out: Plant response rating, Foxtail, Giant
[15] = post-emergence, Postemergence, read-out: Plant response rating (0 to 100), Ragweed
[16] = pre-emergence, Preemergence, read-out: Plant response rating, Ragweed
[17] = post-emergence, Postemergence, read-out: Plant response rating (0 to 100), Ryegrass, Italian
[18] = pre-emergence, Preemergence, read-out: Plant response rating, Ryegrass, Italian

COCC(=O)n1cc(C(=O)c2ccccc2)c(-c2cc(Cl)cc(Cl)c2)n1 [Compound 16, 1-[4-benzoyl-3-(3,5-dichlorophenyl)-1H-pyrazol-1-yl]-2-methoxyethanone]
55%: pest or weed control at 62 g/ha [5, 16]
0%: plant injury at 62 g/ha ([2]; post-emergence, Postemergence, 62 g ai/ha) | plant injury at 125 g/ha ([2]; post-emergence, Postemergence, 125 g ai/ha) | Corn plant response rating (crop injury, 0 = no effect, 100 = complete kill) at 250 g/ha [2, 9] | Corn plant response rating (crop injury, 0 = no effect, 100 = complete kill) at 500 g/ha [2, 9] | Corn plant response rating (crop injury, 0 = no effect, 100 = complete kill) at 62 g/ha ([2]; pre-emergence, Preemergence, 62 g ai/ha) | Corn plant response rating (crop injury, 0 = no effect, 100 = complete kill) at 125 g/ha ([2]; pre-emergence, Preemergence, 125 g ai/ha) | Corn plant response rating (crop injury, 0 = no effect, 100 = complete kill) at 250 g/ha ([2]; pre-emergence, Preemergence) | Corn plant response rating (crop injury, 0 = no effect, 100 = complete kill) at 500 g/ha ([2]; pre-emergence, Preemergence) | pest or weed control at 62 g/ha [3, 11] | pest or weed control at 125 g/ha [3, 11] | pest or weed control at 250 g/ha [3, 9] | pest or weed control at 62 g/ha [3, 12] | pest or weed control at 125 g/ha [3, 12] | pest or weed control at 250 g/ha ([3]; pre-emergence, Preemergence) | pest or weed control at 500 g/ha ([3]; pre-emergence, Preemergence) | pest or weed control at 62 g/ha [4, 13] | pest or weed control at 125 g/ha [4, 13] | pest or weed control at 250 g/ha [4, 9] | pest or weed control at 62 g/ha [4, 14] | pest or weed control at 125 g/ha [4, 14] | pest or weed control at 250 g/ha ([4]; pre-emergence, Preemergence) | pest or weed control at 500 g/ha ([4]; pre-emergence, Preemergence) | pest or weed control at 62 g/ha [6, 17] | pest or weed control at 125 g/ha [6, 17] | pest or weed control at 250 g/ha [6, 9] | pest or weed control at 500 g/ha [6, 9] | pest or weed control at 62 g/ha [6, 18] | pest or weed control at 125 g/ha [6, 18] | pest or weed control at 250 g/ha ([6]; pre-emergence, Preemergence) | pest or weed control at 500 g/ha ([6]; pre-emergence, Preemergence) | pest or weed control at 62 g/ha ([7]; 62 g ai/ha, read-out: Plant response rating (0 to 100), Blackgrass) | pest or weed control at 125 g/ha ([7]; 125 g ai/ha, scale 0 to 100, read-out: Plant response rating, Blackgrass) | pest or weed control at 250 g/ha ([7]; 250 g ai/ha, scale 0 to 100) | pest or weed control at 500 g/ha ([7]; 500 g ai/ha, scale 0 to 100)
75%: pest or weed control at 125 g/ha [1, 8] | pest or weed control at 250 g/ha [1, 9] | pest or weed control at 500 g/ha [1, 9]
70%: pest or weed control at 62 g/ha [1, 8]
5%: pest or weed control at 500 g/ha [3, 9]
95%: pest or weed control at 500 g/ha [5, 9] | pest or weed control at 500 g/ha ([5]; pre-emergence, Preemergence)
85%: pest or weed control at 125 g/ha [5, 15] | pest or weed control at 250 g/ha [5, 9] | pest or weed control at 125 g/ha [5, 16] | pest or weed control at 250 g/ha ([5]; pre-emergence, Preemergence)
60%: pest or weed control at 62 g/ha [5, 15]
100%: pest or weed control at 62 g/ha [1, 10] | pest or weed control at 125 g/ha [1, 10] | pest or weed control at 250 g/ha ([1]; pre-emergence, Preemergence) | pest or weed control at 500 g/ha ([1]; pre-emergence, Preemergence)
10%: pest or weed control at 500 g/ha [4, 9]
